From patent US20240174690A1, “ANNULATED 2-AMINO-3-CYANO THIOPHENES AND DERIVATIVES FOR THE TREATMENT OF CANCER” (BOEHRINGER INGELHEIM INTERNATIONAL GMBH, priority 2021, published 2024)
Where two headings read alike, the source gives them in different places.

Tests used:
[1] = Plasma protein binding assay (PPB), equilibrium dialysis, 10% FCS in PBS; assay type: in vitro ADME; details: for fraction unbound: bovine, read-out: PPB 10% FCS (% fu)
Summary of the method: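 Test compound (1-10 μmol/L) in 10% FCS in PBS was dialysed for 3-5 h at 37° C versus PBS ± dextran across a semipermeable membrane. LC-MS of both compartments after protein precipitation gave Cserum and Cbuffer, from which the unbound fraction fu was derived.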

AsPC-1 cells = assay: AsPC-1 CTG proliferation assay (120 h) (pancreatic cancer, G12D); assay type: cell-based
Summary of the method: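 CellTiter-Glo luminescence, normalised to DMSO wells, measured viability after 120 h compound exposure. Cells were AsPC-1 pancreatic cancer (G12D) plated at 2000 per well in RPMI/10% FCS the day before dosing. IC50 derived by four-parameter regression.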

KRAS (G12C)::SOS1 = KRAS (G12C)::SOS1 (Homo sapiens (Human), UniProt P01116, C118S/C51S/C80L/G12C); assay: KRAS::SOS1 AlphaScreen binding assay, KRAS G12C
Sequence of KRAS (G12C)::SOS1 (P01116 other isoform, or with tags, fused parts or gaps G12C/C51S/C80L/C118S): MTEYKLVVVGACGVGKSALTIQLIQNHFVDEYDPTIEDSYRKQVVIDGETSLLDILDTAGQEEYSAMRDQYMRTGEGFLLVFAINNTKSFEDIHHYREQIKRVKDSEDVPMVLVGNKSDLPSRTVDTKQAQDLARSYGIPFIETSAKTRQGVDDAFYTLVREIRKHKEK
Summary of the method: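 AlphaScreen measurement of compound disruption of biotinylated, GDP-loaded KRAS 1-169 (10 nM; G12C 7.5 nM) binding to GST-SOS1 564-1049 (5 nM with G12D/G12C, 10 nM otherwise), with 10 μM GDP in PBS/0.1% BSA/0.05% Tween 20. Timing was 30 min compound preincubation, then 60 min with beads at room temperature; top concentration 100 μM, 4-parameter IC50.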

Structure (SMILES)	fraction unbound [1]	IC50 (AsPC-1 cells; Homo sapiens, ASPC1) [nM]	IC50 (KRAS (G12C)::SOS1) [nM]	PPB 10% FCS (% fu) ([1]; fraction unbound)	IC50 (AsPC-1 cells) [nM]
COc1c(O[C@@H](C)[C@@H]2CCCN2C)nc(-c2noc3c2CCC[C@@]32CCCc3sc(N)c(C#N)c32)nc1-n1ccc(C(N)=O)n1 [II-159]	0.21	1890	2	–	–
C[C@H](Oc1cc(N2CC3COCC(C2)N3)nc(-c2noc3c2CCC[C@@]32CCCc3sc(N)c(C#N)c32)n1)[C@@H]1CCCN1C [II-160]	0.53	3220	7	–	–
C[C@@H]1CN(c2cc(O[C@@H](C)[C@@H]3CCCN3C)nc(-c3noc4c3CCC[C@@]43CCCc4sc(N)c(C#N)c43)n2)CCN1 [II-161]	0.37	1600	5	–	–
C[C@H](Oc1cc(N2CCN[C@@H](C)C2)nc(-c2noc3c2CCC[C@@]32CCCc3sc(N)c(C#N)c32)n1)[C@@H]1CCCN1C [II-162]	0.69	922	3	–	–
C[C@H](Oc1cc([C@H]2CCNC2)nc(-c2noc3c2CCC[C@@]32CCCc3sc(N)c(C#N)c32)n1)[C@@H]1CCCN1C [II-163]	0.61	935	2	–	–
C[C@H](Oc1cc(C2=CCNCC2)nc(-c2noc3c2CCC[C@@]32CCCc3sc(N)c(C#N)c32)n1)[C@@H]1CCCN1C [II-164]	0.54	483	2	–	–
C[C@H](Oc1cc(N2CCNC3(CC3)C2)nc(-c2noc3c2CCC[C@@]32CCCc3sc(N)c(C#N)c32)n1)[C@@H]1C[C@@H](F)CN1C [II-165]	0.16	25	3	–	–
CC(C)[C@@H]1CN(c2cc(O[C@@H](C)[C@@H]3CCCN3C)nc(-c3noc4c3CCC[C@@]43CCCc4sc(N)c(C#N)c43)n2)CCN1 [II-166]	0.22	1280	8	–	–
C[C@H](Oc1cc(N2C[C@@H]3[C@@H](N)[C@@H]3C2)nc(-c2noc3c2CCC[C@@]32CCCc3sc(N)c(C#N)c32)n1)[C@@H]1CCCN1C [II-167]	0.26	4230	5	–	–
C[C@H](Oc1cc(-n2cc3c(n2)CNC3)nc(-c2noc3c2CCC[C@@]32CCCc3sc(N)c(C#N)c32)n1)[C@@H]1CCCN1C [II-168]	0.47	778	2	–	–
CC(C)N1CCCN(c2cc(-c3ccn(C)n3)nc(-c3noc4c3CCC[C@@]43CCCc4sc(N)c(C#N)c43)n2)[C@@H](C)C1 [II-170]	0.32	3590	3	–	–
C[C@H](Oc1cc(N2CCN(C)C3(CC3)C2)nc(-c2noc3c2CCC[C@@]32CCCc3sc(N)c(C#N)c32)n1)[C@@H]1CCCN1C [II-171]	0.23	295	5	–	–
C[C@H](Oc1cc(N2C[C@H](C)N(C)[C@@H](C)C2)nc(-c2noc3c2CCC[C@@]32CCCc3sc(N)c(C#N)c32)n1)[C@@H]1CCCN1C [II-173]	0.41	1210	5	–	–
C[C@H](Oc1cc(-n2cc3c(n2)CN(C)C3)nc(-c2noc3c2CCC[C@@]32CCCc3sc(N)c(C#N)c32)n1)[C@@H]1CCCN1C [II-174]	0.17	103	2	–	–
C[C@H](Oc1nc(-c2noc3c2CCC[C@@]32CCCc3sc(N)c(C#N)c32)nc(N2CCN(C)C3(CC3)C2)c1Cl)[C@@H]1C[C@@H](F)CN1C [II-176]	0.01	851	15	–	–
CC(=O)N1CCN(c2cc(O[C@@H](C)[C@@H]3CCCN3C)nc(-c3noc4c3CCC[C@@]43CCCc4sc(N)c(C#N)c43)n2)CC12CC2 [II-178]	0.46	814	2	–	–
CC(C)NC(=O)Cc1ccn(-c2cc(O[C@@H](C)[C@@H]3CCCN3C)nc(-c3noc4c3CCC[C@@]43CCCc4sc(N)c(C#N)c43)n2)n1 [II-182]	0.13	188	1	–	–

Structure (SMILES)	fraction unbound [1]	IC50 (AsPC-1 cells; Homo sapiens, ASPC1) [nM]	IC50 (KRAS (G12C)::SOS1) [nM]	PPB 10% FCS (% fu) ([1]; fraction unbound)	IC50 (AsPC-1 cells) [nM]
CO[C@H]1CCN(C)[C@@H]1[C@H](C)Oc1cc(-n2ccc(CC(=O)NC(C)C)n2)nc(-c2noc3c2CCC[C@@]32CCCc3sc(N)c(C#N)c32)n1 [II-183]	0.04	162	2	–	–
CO[C@H]1CCN(C)[C@@H]1[C@H](C)Oc1cc(N2CCNC3(CC3)C2)nc(-c2noc3c2CCC[C@@]32CCCc3sc(N)c(C#N)c32)n1 [II-184]	0.1	8	2	–	–
CCN1CCN(c2cc(O[C@@H](C)[C@@H]3C[C@@H](F)CN3C)nc(-c3noc4c3CCC[C@@]43CCCc4sc(N)c(C#N)c43)n2)CC12CC2 [II-185]	0.02	190	21	–	–
CO[C@H]1CCN(C)[C@@H]1[C@H](C)Oc1cc(N2CCN(C)C3(CC3)C2)nc(-c2noc3c2CCC[C@@]32CCCc3sc(N)c(C#N)c32)n1 [II-186]	0.08	38	3	–	–
CO[C@@H]1C[C@@H]([C@H](C)Oc2cc(N3CCNC4(CC4)C3)nc(-c3noc4c3CCC[C@@]43CCCc4sc(N)c(C#N)c43)n2)N(C)C1 [II-187]	0.14	30	2	–	–
C[C@H](Oc1cc(-n2ccc(C3(O)COC3)n2)nc(-c2noc3c2CCC[C@@]32CCCc3sc(N)c(C#N)c32)n1)[C@@H]1CCCN1C [II-189]	0.16	1150	2	–	–
C[C@H](NC(=O)c1ccn(-c2cc(O[C@@H](C)[C@@H]3CCCN3C)nc(-c3noc4c3CCC[C@@]43CCCc4sc(N)c(C#N)c43)n2)n1)c1ccccn1 [II-191]	0.03	425	2	–	–
C[C@H](Oc1cc(-n2ccc(C(=O)N[C@@H]3CCOC3)n2)nc(-c2noc3c2CCC[C@@]32CCCc3sc(N)c(C#N)c32)n1)[C@@H]1CCCN1C [II-192]	0.24	305	1	–	–
C[C@H](Oc1cc(-n2ccc(C(=O)N[C@H]3CCOC3)n2)nc(-c2noc3c2CCC[C@@]32CCCc3sc(N)c(C#N)c32)n1)[C@@H]1CCCN1C [II-193]	–	–	1	20	176
C[C@H](Oc1cc(-n2ccc(C(=O)N(C)C3COC3)n2)nc(-c2noc3c2CCC[C@@]32CCCc3sc(N)c(C#N)c32)n1)[C@@H]1CCCN1C [II-194]	0.08	411	1	–	–
COCCNC(=O)c1ccn(-c2cc(O[C@@H](C)[C@@H]3CCCN3C)nc(-c3noc4c3CCC[C@@]43CCCc4sc(N)c(C#N)c43)n2)n1 [II-195]	0.24	282	1	–	–
CO[C@H]1CCN(C)[C@@H]1[C@H](C)Oc1cc(-n2ccc(C(=O)N[C@@H](C)c3ccccn3)n2)nc(-c2noc3c2CCC[C@@]32CCCc3sc(N)c(C#N)c32)n1 [II-196]	0.01	248	1	–	–
CO[C@H]1CCN(C)[C@@H]1[C@H](C)Oc1cc(-n2ccc(C(=O)N[C@@H]3CCOC3)n2)nc(-c2noc3c2CCC[C@@]32CCCc3sc(N)c(C#N)c32)n1 [II-197]	0.04	226	1	–	–
CO[C@H]1CCN(C)[C@@H]1[C@H](C)Oc1cc(-n2ccc(C(=O)N[C@H]3CCOC3)n2)nc(-c2noc3c2CCC[C@@]32CCCc3sc(N)c(C#N)c32)n1 [II-198]	0.06	143	1	–	–
CO[C@H]1CCN(C)[C@@H]1[C@H](C)Oc1cc(-n2ccc(C(=O)N(C)C3COC3)n2)nc(-c2noc3c2CCC[C@@]32CCCc3sc(N)c(C#N)c32)n1 [II-199]	0.07	446	1	–	–
COCCNC(=O)c1ccn(-c2cc(O[C@@H](C)[C@@H]3[C@@H](OC)CCN3C)nc(-c3noc4c3CCC[C@@]43CCCc4sc(N)c(C#N)c43)n2)n1 [II-200]	0.03	340	1	–	–
